Reference: ChEMBL document CHEMBL4020745 (Bioorg Med Chem Lett, 2017)

Assays:
Assay type in all cases: cell-based
[1] = test system: HEK293; experiment: Cytotoxicity against HEK293 cells harboring beta-galactosidase expression plasmid assessed as effect on beta-galactosidase activity; settings: human
[2] = biological target: T1, Peroxisome proliferator-activated receptor gamma (Homo sapiens, UniProt P37231); experiment: Transrepression activity at human PPARgamma expressed in HEK293 cells assessed as inhibition of TNFalpha induced NF-kappaB promoter activity pretreated for 4 hrs followed by TNFalpha stimulation after 3 hrs by luciferase reporter gene assay
T1 sequence (P37231 whole entry): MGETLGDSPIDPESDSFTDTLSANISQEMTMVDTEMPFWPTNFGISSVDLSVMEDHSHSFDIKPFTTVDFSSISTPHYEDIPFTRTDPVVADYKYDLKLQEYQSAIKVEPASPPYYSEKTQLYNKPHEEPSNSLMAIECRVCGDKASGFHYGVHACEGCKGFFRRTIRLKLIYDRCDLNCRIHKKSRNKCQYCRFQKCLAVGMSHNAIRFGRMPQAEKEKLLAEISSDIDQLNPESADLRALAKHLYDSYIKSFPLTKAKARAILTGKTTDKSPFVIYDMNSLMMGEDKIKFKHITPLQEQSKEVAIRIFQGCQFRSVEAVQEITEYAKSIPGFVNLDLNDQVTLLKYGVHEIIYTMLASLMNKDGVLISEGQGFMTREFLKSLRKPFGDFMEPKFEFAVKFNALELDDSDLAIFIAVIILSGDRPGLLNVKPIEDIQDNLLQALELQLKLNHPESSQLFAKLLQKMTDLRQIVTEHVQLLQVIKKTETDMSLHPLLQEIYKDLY

[3] = biological target: T1, Peroxisome proliferator-activated receptor gamma; experiment: Transactivation activity at Gal4 fused […] human PPARgamma LBD expressed in HEK293 cells after 24 hrs by luciferase reporter gene assay
[4] = Inhibition of TNFalpha induced NF-kappaB (unknown origin) activation expressed in PPARgamma deficient HEK293 cells pretreated for 4 hrs followed by TNFalpha stimulation after 3 hrs by luciferase reporter gene assay; settings: Homo sapiens

Compound	IC50 [2] [µM]	EC50 [3] [µM]	Activity [1]	IC50 [4] [µM]
CC(C)N(CCOc1ccc(CC2SC(=O)NC2=O)cc1)c1nc2ccccc2s1 (stereo unspecified)	20	0.53	Non-Toxic	
CN(CCOc1ccc(CC2SC(=O)NC2=O)cc1)c1nc2ccccc2s1 (stereo unspecified)	20	0.057	Non-Toxic	
O=C1NC(=O)/C(=C/c2ccc(OCCNc3nc4ccccc4s3)cc2)S1	14	0.053	Non-Toxic	29
CCN(CCOc1ccc(CC2SC(=O)NC2=O)cc1)c1nc2ccccc2s1 (stereo unspecified)	25	0.052	Non-Toxic	
CCc1ccc(CCOc2ccc(CC3SC(=O)NC3=O)cc2)nc1 (stereo unspecified) [PIOGLITAZONE]			Non-Toxic	
CN(CCOc1ccc(CC2SC(=O)NC2=O)cc1)c1ccccn1 (stereo unspecified) [ROSIGLITAZONE]			Non-Toxic	
CCN(CCOc1ccc(CC2SC(=O)NC2=O)cc1)c1ccccn1 (stereo unspecified)	21	0.54	Non-Toxic	

Continued, in another order:

IC50 [2] [µM]	EC50 [3] [µM]	Compound	Activity [1]	IC50 [4] [µM]
13	0.31	CN(CCOc1ccc(/C=C2\SC(=O)NC2=O)cc1)c1nc2ccccc2s1	Non-Toxic	
17	0.82	CCN(CCOc1ccc(/C=C2\SC(=O)NC2=O)cc1)c1nc2ccccc2s1	Non-Toxic	
38	3.4	CN(CCOc1ccc(/C=C2\SC(=O)NC2=O)cc1)c1nc2ccccc2[nH]1	Non-Toxic	
42	0.7	CN(CCOc1ccc(/C=C2\SC(=O)NC2=O)cc1)c1nccs1	Non-Toxic	
15	0.36	CCN(CCOc1ccc(/C=C2\SC(=O)NC2=O)cc1)c1ccccn1	Non-Toxic	
40	1.6	CN(CCOc1ccc(/C=C2\SC(=O)NC2=O)cc1)c1ccc2ccccc2c1	Non-Toxic	
